Values joined by “and” are separate entries in the source; they are usually repeats but may differ in a detail not shown here. Equal entries are not always repeated. Inconclusive results and toxic doses are left out.

This test concerns P388 leukemia ip, CD2F1 mice, survival T/C. The experiment in a line: NCI In Vivo Anticancer Drug Screen. Data for tumor model P388 Leukemia (intraperitoneal) in CD2F1 (CDF1) mice. To be noted: endpoint: median survival time, higher = longer survival. An outline of the steps:
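Mice carrying the transplanted tumor received test compound or vehicle. Survival was recorded in each group, and the value is the treated-group measurement divided by that of the vehicle-treated control group.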

[1] abbreviates: dose: 12.5 mg/kg/injection, schedule: Q01DX009 (ip), vehicle: water.

For `COc1cccc2c1C(=O)c1c(O)c3c(c(O)c1C2=O)C[C@@](O)(C(=O)CSc1ccccc1)C[C@@H]3OC1CC(N)C(O)C(C)O1` (stereo partly drawn), the T/C was 122 % of control (dose: 0.78 mg/kg/injection, schedule: Q01DX009 (ip), vehicle: water); 99 % of control and 91 % of control under setting [1].
Consider `O=C(NC(=O)C(F)(F)C(F)(F)F)Nc1cccc(F)c1`, for which the T/C is, setting by setting: (dose: 100.0 mg/kg/injection, schedule: Q01DX009 (ip), vehicle: Klucel (hydroxypropylcellulose) (HPC)) 106 % of control; (dose: 200.0 mg/kg/injection, schedule: Q01DX009 (ip), vehicle: Klucel (hydroxypropylcellulose) (HPC)) 100 % of control.
As to `CCn1c(=NC(=O)c2ccccc2O)ccn1C`, the T/C reads like this: (dose: 60.0 mg/kg/injection, schedule: Q01DX005 (ip), vehicle: Klucel (hydroxypropylcellulose) (HPC)) 95 % of control; (dose: 120.0 mg/kg/injection, schedule: Q01DX005 (ip), vehicle: Klucel (hydroxypropylcellulose) (HPC)) 90 % of control; (dose: 240.0 mg/kg/injection, schedule: Q01DX005 (ip), vehicle: Klucel (hydroxypropylcellulose) (HPC)) 88 % of control.
Regarding `COc1ccc(C2=NNC(=O)CC2)cc1OC`, the T/C was 99 % of control (dose: 12.5 mg/kg/injection, schedule: Q04DX003 (ip), vehicle: saline); 101 % of control (dose: 25.0 mg/kg/injection, schedule: Q04DX003 (ip), vehicle: saline); 101 % of control (dose: 50.0 mg/kg/injection, schedule: Q04DX003 (ip), vehicle: saline).
For `COc1ccccc1/C=C/C(=O)c1ccccc1`, the T/C reads like this: (dose: 50.0 mg/kg/injection, schedule: Q01DX009 (ip), vehicle: saline with Tween-80) 96 % of control; (dose: 100.0 mg/kg/injection, schedule: Q01DX009 (ip), vehicle: saline with Tween-80) 94 % of control; (dose: 200.0 mg/kg/injection, schedule: Q01DX009 (ip), vehicle: saline with Tween-80) 96 % of control.
For the compound `Oc1ccccc1C=Nc1ccc(Cl)cn1`, the T/C is 99 % of control (dose: 50.0 mg/kg/injection, schedule: Q01DX009 (ip), vehicle: saline); 100 % of control (dose: 100.0 mg/kg/injection, schedule: Q01DX009 (ip), vehicle: saline); 107 % of control (dose: 200.0 mg/kg/injection, schedule: Q01DX009 (ip), vehicle: saline).
Regarding `CC[C@@]12C[C@H]3CN(CCc4c([nH]c5ccccc45)[C@@](C(=O)OC)(c4cc5c(cc4OC)N(C)[C@H]4[C@@](O)(C(=O)OC)[C@H](OC(C)=O)[C@]6(CC)C=CCN7CC[C@]54[C@@H]76)C3O1)C2` (stereo partly drawn), the T/C runs as follows: (dose: 0.5 mg/kg/injection, schedule: Q01DX001 (ip), vehicle: distilled water + Tween-80) 103 % of control; (dose: 0.5 mg/kg/injection, schedule: Q01DX001 (ip), vehicle: water) 98 % of control; (dose: 1.0 mg/kg/injection, schedule: Q01DX001 (ip), vehicle: distilled water + Tween-80) 100 % of control and 101 % of control; (dose: 1.0 mg/kg/injection, schedule: Q01DX001 (ip), vehicle: water) 96 % of control; (dose: 1.0 mg/kg/injection, schedule: Q01DX009 (ip), vehicle: distilled water + alcohol) 176 % of control; (dose: 2.0 mg/kg/injection, schedule: Q01DX001 (ip), vehicle: distilled water + Tween-80) 100 % of control. Also, the T/C was 97 % of control (dose: 2.0 mg/kg/injection, schedule: Q01DX001 (ip), vehicle: water); 176 % of control (dose: 2.0 mg/kg/injection, schedule: Q01DX009 (ip), vehicle: distilled water + alcohol); 100 % of control and 108 % of control (dose: 4.0 mg/kg/injection, schedule: Q01DX001 (ip), vehicle: distilled water + Tween-80); 105 % of control (dose: 4.0 mg/kg/injection, schedule: Q01DX001 (ip), vehicle: water); 168 % of control (dose: 4.0 mg/kg/injection, schedule: Q01DX009 (ip), vehicle: distilled water + alcohol); 100 % of control and 93 % of control (dose: 8.0 mg/kg/injection, schedule: Q01DX001 (ip), vehicle: distilled water + Tween-80). Also, the T/C reads like this: (dose: 8.0 mg/kg/injection, schedule: Q01DX001 (ip), vehicle: water) 108 % of control; (dose: 16.0 mg/kg/injection, schedule: Q01DX001 (ip), vehicle: distilled water + Tween-80) 96 % of control; (dose: 32.0 mg/kg/injection, schedule: Q01DX001 (ip), vehicle: distilled water + Tween-80) 102 % of control.
For `CC(C)(C)SSC(=S)C(c1ccccc1)c1ccccc1`, the T/C was 105 % of control (dose: 50.0 mg/kg/injection, schedule: Q01DX005 (ip), vehicle: saline + Tween-80 + alcohol); 107 % of control (dose: 100.0 mg/kg/injection, schedule: Q01DX005 (ip), vehicle: saline + Tween-80 + alcohol); 96 % of control (dose: 200.0 mg/kg/injection, schedule: Q01DX005 (ip), vehicle: saline + Tween-80 + alcohol).
With `Cc1ccc(C(=O)CC(=O)Nc2cc([N+](=O)[O-])ccc2OCCOc2ccc(C(C)(C)CC(C)(C)C)cc2)cc1`, the T/C runs as follows: (dose: 18.75 mg/kg/injection, schedule: Q04DX003 (ip), vehicle: saline sonified) 109 % of control; (dose: 37.5 mg/kg/injection, schedule: Q04DX003 (ip), vehicle: saline sonified) 90 % of control; (dose: 75.0 mg/kg/injection, schedule: Q04DX003 (ip), vehicle: saline sonified) 109 % of control.
Consider `CC(C)C1CCC(C)C1C(N)=O` (stereo not drawn), for which the T/C by setting is: (dose: 100.0 mg/kg/injection, schedule: Q04DX002 (ip), vehicle: saline with Tween-80) 103 % of control; (dose: 200.0 mg/kg/injection, schedule: Q04DX002 (ip), vehicle: saline with Tween-80) 99 % of control; (dose: 400.0 mg/kg/injection, schedule: Q04DX002 (ip), vehicle: saline with Tween-80) 99 % of control.
Turning to `CC(=O)OC1C/C(C)=C/CCC(C)/C=C/C2(C)CCC(C(C)(C)O)C12` (stereo not drawn), the T/C runs as follows: (dose: 8.0 mg/kg/injection, schedule: Q01DX009 (ip), vehicle: Klucel (hydroxypropylcellulose) (HPC)) 105 % of control; (dose: 16.0 mg/kg/injection, schedule: Q01DX009 (ip), vehicle: Klucel (hydroxypropylcellulose) (HPC)) 106 % of control; (dose: 32.0 mg/kg/injection, schedule: Q01DX009 (ip), vehicle: Klucel (hydroxypropylcellulose) (HPC)) 106 % of control; (dose: 64.0 mg/kg/injection, schedule: Q01DX009 (ip), vehicle: Klucel (hydroxypropylcellulose) (HPC)) 106 % of control.
With `COc1ccc(C2CCCC(CCc3ccc(O)cc3)O2)cc1` (stereo not drawn), the T/C is 100 % of control (dose: 50.0 mg/kg/injection, schedule: Q01DX005 (ip), vehicle: Klucel (hydroxypropylcellulose) (HPC)); 103 % of control (dose: 100.0 mg/kg/injection, schedule: Q01DX005 (ip), vehicle: Klucel (hydroxypropylcellulose) (HPC)); 100 % of control (dose: 200.0 mg/kg/injection, schedule: Q01DX005 (ip), vehicle: Klucel (hydroxypropylcellulose) (HPC)).
Turning to `CCOC(=O)C1CC(=O)c2ccccc2C1` (stereo not drawn), the T/C reads like this: (dose: 6.25 mg/kg/injection, schedule: Q01DX009 (ip), vehicle: distilled water + Tween-80) 101 % of control; (dose: 12.5 mg/kg/injection, schedule: Q01DX009 (ip), vehicle: distilled water + Tween-80) 96 % of control; (dose: 25.0 mg/kg/injection, schedule: Q01DX009 (ip), vehicle: distilled water + Tween-80) 95 % of control; (dose: 50.0 mg/kg/injection, schedule: Q01DX009 (ip), vehicle: distilled water + Tween-80) 102 % of control; (dose: 100.0 mg/kg/injection, schedule: Q01DX009 (ip), vehicle: distilled water + Tween-80) 100 % of control; (dose: 200.0 mg/kg/injection, schedule: Q01DX009 (ip), vehicle: distilled water + Tween-80) 101 % of control. Further, the T/C (dose: 400.0 mg/kg/injection, schedule: Q01DX009 (ip), vehicle: distilled water + Tween-80) was 109 % of control.
Turning to `COc1ccc(C(=O)CCN(C)C)c(OC)c1`, the T/C reads like this: (dose: 15.0 mg/kg/injection, schedule: Q01DX005 (ip), vehicle: saline) 102 % of control; (dose: 30.0 mg/kg/injection, schedule: Q01DX005 (ip), vehicle: saline) 94 % of control; (dose: 60.0 mg/kg/injection, schedule: Q01DX005 (ip), vehicle: saline) 106 % of control and 109 % of control.
On to `CC1(C)CC(OP(=S)(N2CC2)N2CC2)CC(C)(C)N1O`, for which the T/C (dose: 100.0 mg/kg/injection, schedule: Q01DX001 (ip), vehicle: Klucel (hydroxypropylcellulose) (HPC)) was 160 % of control and the T/C (dose: 400.0 mg/kg/injection, schedule: Q01DX001 (ip), vehicle: Klucel (hydroxypropylcellulose) (HPC)) was 187 % of control.
`C=CC1=NC(C)(C)CC(C)O1` (stereo not drawn): the T/C reads like this: (dose: 1.56 mg/kg/injection, schedule: Q01DX009 (ip), vehicle: water) 104 % of control; (dose: 3.13 mg/kg/injection, schedule: Q01DX009 (ip), vehicle: water) 107 % of control; (dose: 6.25 mg/kg/injection, schedule: Q01DX009 (ip), vehicle: water) 116 % of control; under setting [1], 109 % of control.

(Values after PubChem BioAssay AID330 (DTP/NCI, 2004).)
